In article PMC2014795 (PLoS Pathogens, 2007) one finds IC50 data, which are given here for 13 compounds.

The target of the assay is T1, HLA-DR1 (DRB1*0101) (Homo sapiens, UniProt P01903+P01911, A100R/D57E/F55L/F60I/F76Y/I96L/L162R/M171V/P40L/Q125E/R42F/V115G/Y59C).
T1 construct: the extracellular portion of HLA-DR1 was produced by expression of isolated subunits in Escherichia coli inclusion bodies; made in house
The experiment in a line: biochemical. The class given is binding.

Like-named read-outs stand apart in the source and are kept apart here. Where no end group is shown, it is not given here.

The IC50 is the concentration needed to halve the response being measured. As for `CC[C@H](C)[C@H](NC(=O)[C@H](CCCNC(=N)N)NC(=O)[C@H](Cc1ccccc1)NC(=O)[C@H](CC(C)C)NC(=O)[C@H](Cc1ccc(O)cc1)NC(=O)[C@H](CCC(=O)O)NC(=O)[C@H](CO)NC(=O)[C@H](CC(=O)O)NC(=O)[C@@H](N)CCC(=O)O)C(=O)N[C@H](C(=O)N[C@@H](CO)C(=O)N[C@H](C(=O)N[C@H](C(=O)N[C@@H](CC(C)C)C(=O)N1CCC[C@H]1C(=O)N[C@@H](Cc1c[nH]cn1)C(=O)N[C@@H](CC(C)C)C(=O)N[C@@H](CS)C(=O)N[C@@H](CC(C)C)C(=O)N[C@@H](CC(=O)O)C(=O)N[C@@H](Cc1ccc(O)cc1)C(=O)O)C(C)C)[C@@H](C)O)C(C)C` [Peptide 334], inhibition was half-maximal at 45 ± 8 nM (IC50).

As to `CC[C@H](C)[C@H](NC(=O)CNC(=O)[C@H](CCCCN)NC(=O)[C@@H](N)Cc1c[nH]c2ccccc12)C(=O)N[C@@H](Cc1ccc(O)cc1)C(=O)N[C@H](C(=O)N[C@@H](Cc1ccc(O)cc1)C(=O)N[C@@H](CCCNC(=N)N)C(=O)N[C@H](C(=O)N[C@H](C(=O)N[C@@H](CCCCN)C(=O)N[C@@H](CO)C(=O)N[C@@H](CO)C(=O)N[C@@H](Cc1ccccc1)C(=O)N1CCC[C@H]1C(=O)N[C@H](C(=O)N1CCC[C@H]1C(=O)N[C@H](C(=O)N[C@H](C(=O)N[C@@H](CCCCN)C(=O)N[C@@H](CO)C(=O)O)[C@@H](C)CC)[C@@H](C)O)C(C)C)[C@@H](C)CC)[C@@H](C)CC)[C@@H](C)O` [Peptide 335], the half-maximal inhibitory concentration (IC50) is 38 ± 11 nM.

`CC[C@H](C)[C@H](NC(=O)[C@H](Cc1ccccc1)NC(=O)[C@H](CC(C)C)NC(=O)[C@H](CC(C)C)NC(=O)[C@H](CS)NC(=O)[C@@H](NC(=O)[C@H](C)NC(=O)[C@H](C)NC(=O)[C@@H](NC(=O)[C@H](C)N)[C@@H](C)O)C(C)C)C(=O)N[C@@H](CCC(N)=O)C(=O)NCC(=O)N[C@@H](Cc1ccc(O)cc1)C(=O)N[C@@H](CO)C(=O)N[C@H](C(=O)N[C@@H](Cc1ccc(O)cc1)C(=O)N[C@@H](CCC(=O)O)C(=O)N[C@@H](CC(N)=O)C(=O)N[C@@H](Cc1ccc(O)cc1)C(=O)NCC(=O)N[C@@H](CC(N)=O)C(=O)O)[C@@H](C)CC` [Peptide 336] gave an IC50 of 280 ± 40 nM.

For `CC[C@H](C)[C@H](NC(=O)[C@H](CCCNC(=N)N)NC(=O)[C@H](CO)NC(=O)CNC(=O)[C@H](CCC(N)=O)NC(=O)[C@H](CCC(=O)O)NC(=O)[C@@H](NC(=O)CNC(=O)[C@H](CC(C)C)NC(=O)[C@@H]1CCCN1C(=O)[C@H](CCCCN)NC(=O)[C@H](CCSC)NC(=O)[C@H](CC(C)C)NC(=O)[C@H](CC(C)C)NC(=O)[C@H](CC(C)C)NC(=O)[C@H](CC(N)=O)NC(=O)[C@H](Cc1ccccc1)NC(=O)[C@H](CCSC)NC(=O)[C@H](CC(=O)O)NC(=O)[C@H](Cc1ccc(O)cc1)NC(=O)[C@@H](N)CO)[C@@H](C)CC)C(=O)O` [Peptide 337], 28 ± 6 nM corresponded to half-maximal inhibition (IC50).

`CC[C@H](C)[C@H](N)C(=O)N[C@@H](CC(=O)O)C(=O)N[C@@H](CC(N)=O)C(=O)NCC(=O)N[C@@H](CO)C(=O)N[C@@H](CC(N)=O)C(=O)N[C@@H](CCSC)C(=O)N[C@@H](CC(C)C)C(=O)N[C@H](C(=O)N[C@@H](CC(C)C)C(=O)N[C@@H](CC(N)=O)C(=O)N1CCC[C@H]1C(=O)N[C@H](C(=O)N[C@@H](CCC(N)=O)C(=O)N[C@@H](CO)C(=O)N[C@@H](CC(=O)O)C(=O)N[C@@H](CO)C(=O)NCC(=O)N[C@H](C(=O)N[C@@H](Cc1ccc(O)cc1)C(=O)N[C@H](C(=O)O)[C@@H](C)CC)[C@@H](C)CC)[C@@H](C)O)[C@@H](C)CC` [Peptide 338] had a half-maximal inhibitory concentration (IC50) of 980 ± 170 nM.

Take `CC[C@H](C)[C@H](NC(=O)[C@H](CCC(=O)O)NC(=O)[C@H](CC(=O)O)NC(=O)[C@@H](NC(=O)[C@H](CC(=O)O)NC(=O)[C@H](CC(C)C)NC(=O)[C@@H](NC(=O)[C@H](CCCCN)NC(=O)CNC(=O)[C@H](Cc1c[nH]cn1)NC(=O)[C@@H](NC(=O)[C@@H](NC(=O)[C@H](Cc1ccc(O)cc1)NC(=O)[C@H](CCSC)NC(=O)[C@H](CC(=O)O)NC(=O)[C@H](Cc1ccc(O)cc1)NC(=O)[C@@H]1CCCN1C(=O)[C@H](CC(C)C)NC(=O)[C@H](CCCNC(=N)N)NC(=O)[C@@H](N)CCCCN)[C@@H](C)CC)[C@@H](C)CC)C(C)C)[C@@H](C)CC)C(=O)N[C@@H](CC(C)C)C(=O)O` [Peptide 339]: the 50% inhibitory concentration (IC50) is 210 ± 45 nM.

`CC[C@H](C)[C@H](N)C(=O)N[C@@H](CO)C(=O)N[C@@H](CCC(=O)O)C(=O)N1CCC[C@H]1C(=O)N[C@H](C(=O)N[C@@H](CC(N)=O)C(=O)N[C@H](C(=O)N[C@@H](Cc1ccc(O)cc1)C(=O)N[C@@H](CC(C)C)C(=O)N[C@@H](CC(C)C)C(=O)N[C@@H](C)C(=O)N[C@@H](C)C(=O)N[C@H](C(=O)N[C@@H](Cc1ccc(O)cc1)C(=O)N[C@@H](CO)C(=O)N[C@@H](CC(=O)O)C(=O)N[C@@H](Cc1ccccc1)C(=O)N[C@@H](CC(N)=O)C(=O)N[C@@H](CC(=O)O)C(=O)N[C@@H](CCC(=O)O)C(=O)N[C@H](C(=O)O)C(C)C)C(C)C)C(C)C)C(C)C` [Peptide 341] returned an IC50 of 32 ± 2 nM.

In turn, `CC[C@H](C)[C@H](N)C(=O)N[C@@H](CC(=O)O)C(=O)N[C@@H](CC(N)=O)C(=O)N[C@@H](CCC(=O)O)C(=O)N[C@@H](CO)C(=O)NCC(=O)N[C@@H](Cc1c[nH]c2ccccc12)C(=O)N[C@@H](CCCCN)C(=O)N[C@H](C(=O)N[C@@H](CC(C)C)C(=O)N[C@H](C(=O)N[C@@H](CO)C(=O)N[C@@H](CCCNC(=N)N)C(=O)N[C@@H](C)C(=O)N[C@H](C(=O)N[C@@H](CC(=O)O)C(=O)N[C@@H](CC(C)C)C(=O)N[C@@H](CO)C(=O)N[C@@H](CO)C(=O)N[C@@H](CCCCN)C(=O)N[C@@H](CCCCN)C(=O)O)[C@@H](C)CC)C(C)C)[C@@H](C)O` [Peptide 342] had an IC50 of 130 ± 10 nM.

With `CC[C@H](C)[C@H](NC(=O)[C@H](C)NC(=O)[C@H](CCCNC(=N)N)NC(=O)CNC(=O)[C@@H](NC(=O)[C@@H](NC(=O)[C@H](CCC(N)=O)NC(=O)[C@H](CCCNC(=N)N)NC(=O)[C@H](CC(C)C)NC(=O)[C@H](CO)NC(=O)[C@H](C)NC(=O)[C@H](CCC(=O)O)NC(=O)[C@H](CC(N)=O)NC(=O)[C@H](Cc1c[nH]c2ccccc12)NC(=O)[C@@H](N)[C@@H](C)O)[C@@H](C)CC)C(C)C)C(=O)N[C@@H](CCCNC(=N)N)C(=O)N[C@@H](CC(C)C)C(=O)N[C@@H](CC(N)=O)C(=O)N[C@@H](CO)C(=O)N[C@@H](Cc1c[nH]cn1)C(=O)N[C@H](C(=O)O)C(C)C` [Peptide 343], the IC50 came out at 210 ± 20 nM.

For `CC[C@H](C)[C@H](N)C(=O)N[C@H](C(=O)N[C@H](C(=O)N[C@@H](Cc1c[nH]c2ccccc12)C(=O)N1CCC[C@H]1C(=O)N[C@@H](CCCCN)C(=O)N[C@@H](Cc1ccccc1)C(=O)N[C@@H](CCCNC(=N)N)C(=O)N[C@H](C(=O)N[C@H](C(=O)N[C@@H](CCCCN)C(=O)N1CCC[C@H]1C(=O)N[C@@H](CC(N)=O)C(=O)N[C@@H](CO)C(=O)N[C@@H](Cc1ccccc1)C(=O)N[C@H](C(=O)N[C@@H](Cc1ccccc1)C(=O)N[C@@H](CO)C(=O)N[C@@H](Cc1ccccc1)C(=O)N[C@@H](CO)C(=O)N[C@@H](CO)C(=O)O)[C@@H](C)O)C(C)C)C(C)C)[C@@H](C)O)[C@@H](C)O` [Peptide 344], the IC50 worked out at 33 ± 5 nM.

The compound `CC[C@H](C)[C@H](NC(=O)[C@H](CO)NC(=O)[C@H](CC(N)=O)NC(=O)[C@H](Cc1ccccc1)NC(=O)[C@@H](NC(=O)[C@H](CC(C)C)NC(=O)[C@H](CCC(N)=O)NC(=O)[C@H](CC(=O)O)NC(=O)[C@H](CCC(=O)O)NC(=O)[C@@H](N)Cc1ccccc1)C(C)C)C(=O)N[C@@H](CO)C(=O)N[C@@H](C)C(=O)N[C@@H](CCCNC(=N)N)C(=O)N[C@@H](C)C(=O)N[C@@H](CC(C)C)C(=O)N[C@@H](CCCCN)C(=O)N[C@@H](C)C(=O)N[C@@H](Cc1ccc(O)cc1)C(=O)N[C@@H](Cc1ccccc1)C(=O)N[C@H](C(=O)N[C@@H](C)C(=O)O)[C@@H](C)O` [Peptide 345] registered an IC50 of 8 ± 0.3 nM.

As to `CSCC[C@H](NC(=O)[C@H](CC(=O)O)NC(=O)[C@@H](NC(=O)[C@H](CCCNC(=N)N)NC(=O)[C@H](CCSC)NC(=O)[C@H](Cc1ccccc1)NC(=O)[C@@H]1CCCN1C(=O)[C@@H](NC(=O)[C@H](CCC(N)=O)NC(=O)[C@H](CCCCN)NC(=O)CNC(=O)[C@@H]1CCCN1C(=O)[C@@H](N)CC(N)=O)C(C)C)[C@@H](C)O)C(=O)N[C@@H](CC(C)C)C(=O)O` [Peptide B7055], the IC50 (HLA-DR1 competition assay, unpublished data, read-out: IC50) came to 11 nM.

Regarding TTKHPDYAILAARIAVSNLHK [Peptide 307], half-maximal inhibition (IC50) required 28 ± 4 nM.
